Drawing on US20240270739A1, “Heteroaryl Fluoroalkenes As DGK Inhibitors” (Incyte Corporation, priority 2023, published 2024), this text covers IC50 for 19 molecules.

A value given as a limit tells only on which side of the number the result lay.

For one assay, the target named is T1, DGKζ (Homo sapiens, UniProt Q13574).
T1 construct: His; purchased Signal Chem D30-10H
The assay can be described thus: In vitro DGKζ inhibition assay (ADP-Glo). Type of assay: biochemical. The conditions noted are these: His-tagged human recombinant enzyme, 0.4 nM DGKζ, 30 μM ATP, 20 μM DLG, 90 minute incubation. On the procedure: (§1) The DGKα and DGKζ biochemical reactions were performed using His-tagged human recombinant enzymes (Signal Chem, DGKα, #D21-10BH; DGKζ, #D30-10H)) and DLG (Dilauroyl-sn-glycerol) lipid substrate (Signal Chem, #D430-59). ADP-Glo assay was performed using ADP-Glo™ kinase Assay kit (Promega, #V9104). The reactions were carried out in assay buffer containing 40 mM Tris, pH 7.5, 0.1% CHAPS, 0.1% Prionex, 40 mM NaCl, 5 mM MgCl2, 1 mM CaCl2, and 1 mM DTT. DGKα reactions contained 0.1 nM DGKα, 50 μM ATP, and 20 μM DLG. And DGKζ reactions contained 0.4 nM DGKζ, 30 μM ATP, and 20 μM DLG.
(§2) For compound inhibition studies, 40 nL test compound in DMSO was added to wells of white polystyrene plates in 384-well (Greiner, #784075) or 1536-well format (Greiner, #782075). Compounds were added with top concentration of 2 mM with 11 point, 3-fold dilution series. Enzyme solution (contains 2×DGK enzyme concentration in 1× assay buffer) was added to the plate in 2 μL/well volume, followed by 2 μL/well of substrate solution (contains 2× concentration of ATP and DLG substrate in 1× assay buffer). Plates were then centrifuged for 1 min at 1200 RPM and sealed or lidded. For 4 μL reaction volume, test compounds were therefore diluted 100× to final top concentration of […]. After 90 minute incubation, reactions were quenched by addition of 2 μL/well Promega ADP-Glo Reagent, followed by centrifugation and lidding. After 60 min incubation, 2 μL/well Promega Kinase Detection Reagent was added, plates centrifuged, and incubated for 30 min. Plates were then read using Luminescence method on BMG PHERAstar FSX plate reader. Percent inhibition was calculated and IC50s were determined using 4-parameter fit in Genedata Screener. Labcyte Echo acoustic dispenser was used for compound addition, and Formulatrix Tempest liquid handler was used for all reagent dispenses. The compounds of the disclosure were tested in one or more of the assays described above, and the resulting data are shown in Table A.

A further assay addresses T2, DGKα (Homo sapiens, UniProt P23743).
T2 construct: His; purchased Signal Chem D21-10BH
The assay can be described thus: In vitro DGKα inhibition assay (ADP-Glo). It counts as biochemical. The conditions noted are these: His-tagged human recombinant enzyme, 0.1 nM DGKα, 50 μM ATP, 20 μM DLG, 90 minute incubation. The protocol: as §1, §2

T1 sequence (Q13574 whole entry): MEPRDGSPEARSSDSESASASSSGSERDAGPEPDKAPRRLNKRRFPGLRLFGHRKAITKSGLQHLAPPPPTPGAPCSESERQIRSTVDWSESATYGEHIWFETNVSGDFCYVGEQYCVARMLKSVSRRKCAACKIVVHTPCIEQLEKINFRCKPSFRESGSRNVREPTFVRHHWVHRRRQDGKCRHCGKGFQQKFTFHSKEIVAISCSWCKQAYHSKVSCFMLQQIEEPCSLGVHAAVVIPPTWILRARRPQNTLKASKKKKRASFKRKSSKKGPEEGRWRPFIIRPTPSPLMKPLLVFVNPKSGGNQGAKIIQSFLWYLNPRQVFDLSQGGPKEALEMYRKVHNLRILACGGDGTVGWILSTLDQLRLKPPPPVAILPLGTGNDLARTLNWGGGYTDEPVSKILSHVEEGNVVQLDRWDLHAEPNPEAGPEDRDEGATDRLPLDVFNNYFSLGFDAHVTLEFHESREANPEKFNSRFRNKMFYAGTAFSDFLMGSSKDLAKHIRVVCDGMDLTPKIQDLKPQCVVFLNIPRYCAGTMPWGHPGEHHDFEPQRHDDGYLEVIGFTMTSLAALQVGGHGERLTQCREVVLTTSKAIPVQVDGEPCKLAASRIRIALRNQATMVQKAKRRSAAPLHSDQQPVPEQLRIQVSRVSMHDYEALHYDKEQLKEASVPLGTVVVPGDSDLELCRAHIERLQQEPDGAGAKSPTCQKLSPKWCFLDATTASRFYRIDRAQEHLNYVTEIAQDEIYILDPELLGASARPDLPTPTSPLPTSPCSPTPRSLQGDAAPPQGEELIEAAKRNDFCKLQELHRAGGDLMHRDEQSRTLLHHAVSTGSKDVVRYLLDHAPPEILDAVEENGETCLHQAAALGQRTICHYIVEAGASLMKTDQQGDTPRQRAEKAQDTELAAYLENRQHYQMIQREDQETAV
T2 sequence (P23743 whole entry): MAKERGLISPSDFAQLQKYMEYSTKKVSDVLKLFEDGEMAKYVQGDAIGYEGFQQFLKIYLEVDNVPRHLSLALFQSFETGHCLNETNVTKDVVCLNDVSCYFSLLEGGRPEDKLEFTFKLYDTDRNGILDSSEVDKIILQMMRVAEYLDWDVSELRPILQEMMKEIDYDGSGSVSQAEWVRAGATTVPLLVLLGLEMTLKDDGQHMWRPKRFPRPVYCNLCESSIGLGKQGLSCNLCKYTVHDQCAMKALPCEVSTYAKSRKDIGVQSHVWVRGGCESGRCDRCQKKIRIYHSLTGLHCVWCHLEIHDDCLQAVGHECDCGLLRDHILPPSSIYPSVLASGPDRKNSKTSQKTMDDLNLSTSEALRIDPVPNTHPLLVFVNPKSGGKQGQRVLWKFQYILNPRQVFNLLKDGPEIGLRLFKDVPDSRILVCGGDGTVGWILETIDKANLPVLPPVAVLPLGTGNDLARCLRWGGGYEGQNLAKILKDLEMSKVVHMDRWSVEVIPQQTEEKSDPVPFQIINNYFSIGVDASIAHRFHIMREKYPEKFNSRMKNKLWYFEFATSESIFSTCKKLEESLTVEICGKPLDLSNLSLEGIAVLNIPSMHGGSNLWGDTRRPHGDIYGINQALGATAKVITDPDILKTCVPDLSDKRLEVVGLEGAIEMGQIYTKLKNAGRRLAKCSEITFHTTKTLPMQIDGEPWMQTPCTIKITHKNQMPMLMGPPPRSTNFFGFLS

For the molecule `CCN1CCC2(CCCN(c3c(/C=C(\F)c4csc(-c5ccnnc5)n4)ccc(Oc4ccccc4)c3C(F)(F)F)C2)CC1` [Example 17, (Z)-4-(2-(2-(9-Ethyl-2,9-diazaspiro[5.5]undecan-2-yl)-4-phenoxy-3-(trifluoromethyl)phenyl)-1-fluorovinyl)-2-(pyridazin-4-yl)thiazole], the concentration for half-maximal inhibition (IC50) at DGKζ and on DGKα was ≤ 20 nM each time.
`F/C(=C\c1ccc(Oc2cccc(F)c2F)c(C(F)(F)F)c1N1CCCC2(CCN(CC3CC3)CC2)C1)c1ccn(-c2ccnnc2)n1` [Example 10, (Z)-9-(Cyclopropylmethyl)-2-(3-(2,3-difluorophenoxy)-6-(2-fluoro-2-(1-(pyridazin-4-yl)-1H-pyrazol-3-yl)vinyl)-2-(trifluoromethyl)phenyl)-2,9-diazaspiro[5.5]undecane]: the IC50 was ≤ 20 nM on DGKζ and 20 to 200 nM on DGKα.
The like results for `CCN1CCC2(CCCN(c3c(/C=C(\F)c4ccn(-c5ccnnc5)n4)ccc(Oc4ccccc4)c3C(F)(F)F)C2)CC1` [Example 24, (Z)-9-Ethyl-2-(6-(2-fluoro-2-(1-(pyridazin-4-yl)-1H-pyrazol-3-yl)vinyl)-3-phenoxy-2-(trifluoromethyl)phenyl)-2,9-diazaspiro[5.5]undecane] were, in that order, ≤ 20 nM and 20 to 200 nM.
The like results for `COc1cc(F)ccc1Oc1ccc(/C=C(\F)c2csc(-c3ccnnc3)n2)c(N2CCC[C@@H](CN)C2)c1Cl` [Example 3, (S,Z)-(1-(2-Chloro-6-(2-fluoro-2-(2-(pyridazin-4-yl)thiazol-4-yl)vinyl)-3-(4-fluoro-2-methoxyphenoxy)phenyl)piperidin-3-yl)methanamine] were, in that order, ≤ 20 nM and ≤ 20 nM.
The like results for `F/C(=C\c1ccc(Oc2cccc(F)c2F)c(C(F)(F)F)c1N1CCCC2(CCN(CC3CC3)CC2)C1)c1csc(-c2ccnnc2)n1` [Example 11, (Z)-4-(2-(2-(9-(Cyclopropylmethyl)-2,9-diazaspiro[5.5]undecan-2-yl)-4-(2,3-difluorophenoxy)-3-(trifluoromethyl)phenyl)-1-fluorovinyl)-2-(pyridazin-4-yl)thiazole] were, in that order, ≤ 20 nM and ≤ 20 nM.
As to `CC(C)(O)CN1CCC2(CCCN(c3c(/C=C(\F)c4csc(-c5ccnnc5)n4)ccc(Oc4ccccn4)c3C(F)(F)F)C2)CC1` [Example 12, (Z)-1-(2-(6-(2-Fluoro-2-(2-(pyridazin-4-yl)thiazol-4-yl)vinyl)-3-(pyridin-2-yloxy)-2-(trifluoromethyl)phenyl)-2,9-diazaspiro[5.5]undecan-9-yl)-2-methylpropan-2-ol], the IC50 on DGKζ and at DGKα was ≤ 20 nM each time.
Regarding `F/C(=C\c1ccc(OC2CCCCC2)c(C(F)(F)F)c1N1CCCC2(CCN(CC3CC3)CC2)C1)c1ccn(-c2ccnnc2)n1` [Example 15, (Z)-2-(3-(Cyclohexyloxy)-6-(2-fluoro-2-(1-(pyridazin-4-yl)-1H-pyrazol-3-yl)vinyl)-2-(trifluoromethyl)phenyl)-9-(cyclopropylmethyl)-2,9-diazaspiro[5.5]undecane], the half-inhibitory concentration (IC50) at DGKζ is ≤ 20 nM; on DGKα, 20 to 200 nM.
The like results for `F/C(=C\c1ccc(Oc2ccccn2)c(C(F)(F)F)c1N1CCCC2(CCN(CC3CC3)CC2)C1)c1ccn(-c2ccnnc2)n1` [Example 16, (Z)-9-(Cyclopropylmethyl)-2-(6-(2-fluoro-2-(1-(pyridazin-4-yl)-1H-pyrazol-3-yl)vinyl)-3-(pyridin-2-yloxy)-2-(trifluoromethyl)phenyl)-2,9-diazaspiro[5.5]undecane] were, in that order, ≤ 20 nM and ≤ 20 nM.
`F/C(=C\c1ccc(Oc2cccc(F)c2F)c(C(F)(F)F)c1N1CCCC2(CCNCC2)C1)c1csc(-c2cnsc2)n1` [Example 8, (Z)-4-(4-(2-(4-(2,3-Difluorophenoxy)-2-(2,9-diazaspiro[5.5]undecan-2-yl)-3-(trifluoromethyl)phenyl)-1-fluorovinyl)thiazol-2-yl)isothiazole]: the half-inhibitory concentration (IC50) was 20 to 200 nM at DGKζ and ≤ 20 nM on DGKα.
The like results for `NC[C@@H]1CCCN(c2c(/C=C(\F)c3ccn(-c4ccnnc4)n3)ccc(Oc3ccccc3F)c2C(F)(F)F)C1` [Example 2, (S,Z)-(1-(6-(2-Fluoro-2-(1-(pyridazin-4-yl)-1H-pyrazol-3-yl)vinyl)-3-(2-fluorophenoxy)-2-(trifluoromethyl)phenyl)piperidin-3-yl)methanamine] were, in that order, ≤ 20 nM and ≤ 20 nM.
The like results for `F/C(=C\c1ccc(Oc2ccccc2)c(C(F)(F)F)c1N1CCOC2(CCNCC2)C1)c1csc(-c2ccnnc2)n1` [Example 5, (Z)-4-(6-(2-Fluoro-2-(2-(pyridazin-4-yl)thiazol-4-yl)vinyl)-3-phenoxy-2-(trifluoromethyl)phenyl)-1-oxa-4,9-diazaspiro[5.5]undecane] were, in that order, ≤ 20 nM and ≤ 20 nM.
For `NC[C@@H]1CCCN(c2c(/C=C(\F)c3csc(-c4ccnnc4)n3)ccc(Oc3ccccc3F)c2C(F)(F)F)C1` [Example 1, (S,Z)-(1-(6-(2-Fluoro-2-(2-(pyridazin-4-yl)thiazol-4-yl)vinyl)-3-(2-fluorophenoxy)-2-(trifluoromethyl)phenyl)piperidin-3-yl)methanamine] the same measures were ≤ 20 nM and ≤ 20 nM.
Turning to `F/C(=C\c1ccc(Oc2ccccc2)c(C(F)(F)F)c1N1CCCC2(CCNCC2)C1)c1csc(N2CCC(F)(F)C2)n1` [Example 9, (Z)-2-(3,3-Difluoropyrrolidin-1-yl)-4-(1-fluoro-2-(4-phenoxy-2-(2,9-diazaspiro[5.5]undecan-2-yl)-3-(trifluoromethyl)phenyl)vinyl)thiazole], the figures for the IC50 on DGKζ and at DGKα were 200 to 2000 nM and 20 to 200 nM, respectively.
For `OCCN1CCC2(CCCN(c3c(/C=C(\F)c4csc(-c5ccnnc5)n4)ccc(Oc4ccccc4)c3C(F)(F)F)C2)CC1` [Example 23, (Z)-2-(2-(6-(2-Fluoro-2-(2-(pyridazin-4-yl)thiazol-4-yl)vinyl)-3-phenoxy-2-(trifluoromethyl)phenyl)-2,9-diazaspiro[5.5]undecan-9-yl)ethan-1-ol] the same measures were ≤ 20 nM and 20 to 200 nM.
For `F/C(=C\c1ccc(Oc2ccccc2)c(C(F)(F)F)c1N1CCCC2(CCN(CC3CC3)CC2)C1)c1ccn(-c2ccnnc2)n1` [Example 21, (Z)-9-(Cyclopropylmethyl)-2-(6-(2-fluoro-2-(1-(pyridazin-4-yl)-1H-pyrazol-3-yl)vinyl)-3-phenoxy-2-(trifluoromethyl)phenyl)-2,9-diazaspiro[5.5]undecane] the same measures were ≤ 20 nM and 20 to 200 nM.
Take `F/C(=C\c1ccc(OC2CCC2)c(C(F)(F)F)c1N1CCOC2(CCNCC2)C1)c1csc(-c2ccnnc2)n1` [Example 7, (Z)-4-(3-Cyclobutoxy-6-(2-fluoro-2-(2-(pyridazin-4-yl)thiazol-4-yl)vinyl)-2-(trifluoromethyl)phenyl)-1-oxa-4,9-diazaspiro[5.5]undecane]: the IC50 on DGKζ was 20 to 200 nM; on DGKα it was ≤ 20 nM.
The like results for `F/C(=C\c1ccc(Oc2cccc(F)c2F)c(Cl)c1N1CCCC2(CCN(CC3CC3)CC2)C1)c1ccn(-c2ccnnc2)n1` [Example 22, (Z)-2-(2-Chloro-3-(2,3-difluorophenoxy)-6-(2-fluoro-2-(1-(pyridazin-4-yl)-1H-pyrazol-3-yl)vinyl)phenyl)-9-(cyclopropylmethyl)-2,9-diazaspiro[5.5]undecane] were, in that order, 20 to 200 nM and ≤ 20 nM.
The like results for `F/C(=C\c1ccc(Oc2cccc(F)c2F)c(C(F)(F)F)c1N1CCCC2(CN(CC3CC3)C2)C1)c1ccn(-c2ccnnc2)n1` [Example 20, (Z)-2-(Cyclopropylmethyl)-6-(3-(2,3-difluorophenoxy)-6-(2-fluoro-2-(1-(pyridazin-4-yl)-1H-pyrazol-3-yl)vinyl)-2-(trifluoromethyl)phenyl)-2,6-diazaspiro[3.5]nonane] were, in that order, 20 to 200 nM and ≤ 20 nM.
`F/C(=C\c1ccc(Oc2ccccc2)c(C(F)(F)F)c1N1CCCC2(CCN(CC3CC3)CC2)C1)c1csc(-c2ccnnc2)n1` [Example 18, (Z)-4-(2-(2-(9-(Cyclopropylmethyl)-2,9-diazaspiro[5.5]undecan-2-yl)-4-phenoxy-3-(trifluoromethyl)phenyl)-1-fluorovinyl)-2-(pyridazin-4-yl)thiazole]: the IC50 was ≤ 20 nM at DGKζ and 20 to 200 nM on DGKα.
